In ChEMBL document CHEMBL5352441, “Modulation of FLT3-ITD and CDK9 in acute myeloid leukaemia cells by novel proteolysis targeting chimera (PROTAC)” (2022):
Activity calls are given as the source filed them. The rule behind the calls is not given here.

Columns and labels:
MV4-11 [1] = assay: Induction of apoptosis in human MV4-11 cells assessed as activation of caspase 3 incubated for 16 hrs in presence of Ac-DEVD-AMC by fluorescence microplate reader analysis; type: functional, cell-based; settings: dose 0.004-2.5 µM
HL-60 = assay: Antiproliferative activity against human HL-60 cells assessed as cell growth inhibition incubated for 72 hrs by resazurin dye based fluorescence analysis; type: functional
[2] = biological target: T1, Protein cereblon/Cyclin-dependent kinase 9 (Homo sapiens) (UniProt P50750+Q96SW2); assay: PROTAC activity at CRBN/CDK9 in human MV4-11 cells at 0.1 to 0.5 uM preincubated for 90 mins with MG132 followed by compound addition and further incubated for 16 hrs by immunoblot analysis; type: cell-based; settings: dose 0.1-0.5 µM
MV4-11 [3] = assay: Induction of apoptosis in human MV4-11 cells assessed as activation of caspase 7 incubated for 16 hrs in presence of Ac-DEVD-AMC by fluorescence microplate reader analysis; type: functional, cell-based; settings: dose 0.004-2.5 µM
MV4-11 [4] = assay: Antiproliferative activity against human MV4-11 cells harboring FLT3-ITD mutation assessed as cell growth inhibition incubated for 72 hrs by resazurin dye based fluorescence analysis; type: functional
MV4-11 [5] = assay: Induction of apoptosis in human MV4-11 cells assessed as PARP-1 cleavage incubated for 16 hrs in presence of Ac-DEVD-AMC by fluorescence microplate reader analysis; type: functional, cell-based; settings: dose 0.004-2.5 µM
MV4-11 [6] = assay: Induction of cell cycle arrest in human MV4-11 cells assessed as accumulation of cells at G2/M phase at 0.1 uM incubated for 16 hrs by PI staining based flow cytometry analysis (reference value: 10.86%); type: functional
[7] = test system: Receptor-type tyrosine-protein kinase FLT3 (Homo sapiens), P36888 [UNDEFINED MUTATION]; assay: Inhibition of FLT3 autophosphorylation at Y589/591 residue in human MV4-11 cells harboring FLT3-ITD mutation at 0.004 to 2.5 uM incubated for 16 hrs by immunoblot analysis; type: cell-based; settings: dose 0.004-2.5 µM
[8] = biological target: T2, Protein cereblon/Receptor-type tyrosine-protein kinase FLT3 (Homo sapiens) (UniProt P36888+Q96SW2); assay: PROTAC activity at CRBN/FLT3 in CRBN-deficient human MV4-11 cells assessed as induction of protein degradation at 0.004 to 2.5 uM incubated for 16 hrs by immunoblot analysis; type: cell-based; settings: dose 0.004-2.5 µM
[9] = biological target: T1, Protein cereblon/Cyclin-dependent kinase 9 (Homo sapiens); assay: PROTAC activity at CRBN/CDK9 in CRBN-deficient human MV4-11 cells assessed as induction of protein degradation at 0.004 to 2.5 uM incubated for 16 hrs by immunoblot analysis; type: cell-based; settings: dose 0.004-2.5 µM
THP-1 = assay: Antiproliferative activity against human THP-1 cells assessed as cell growth inhibition incubated for 72 hrs by resazurin dye based fluorescence analysis; type: functional
[10] = biological target: T2, Protein cereblon/Receptor-type tyrosine-protein kinase FLT3 (Homo sapiens); assay: PROTAC activity at CRBN/FLT3 in human MV4-11 cells harboring FLT3-ITD mutation assessed as induction of protein degradation at low nanomolar concentrations incubated for 16 hrs by immunoblot analysis; type: cell-based
RS4-11 = assay: Antiproliferative activity against human RS4-11 cells assessed as cell growth inhibition incubated for 72 hrs by resazurin dye based fluorescence analysis; type: functional
[11] = biological target: Receptor-type tyrosine-protein kinase FLT3 (Homo sapiens) (UniProt P36888); assay: Inhibition of FLT3 autophosphorylation at Y589/591 residue in human MV4-11 cells at 0.1 to 0.5 uM preincubated for 90 mins with 4-hydroxythalidomide followed by compound addition and further incubated for 16 hrs by immunoblot analysis; type: cell-based; settings: dose 0.1-0.5 µM
MV4-11 [12] = assay: Induction of apoptosis in CRBN-deficient human MV4-11 cells assessed as activation of caspase 7 at 0.004 to 25 uM incubated for 16 hrs in presence of Ac-DEVD-AMC by fluorescence microplate reader analysis; type: functional, cell-based; settings: dose 0.004-25 µM
MV4-11 [13] = assay: Induction of cell cycle arrest in CRBN-deficient human MV4-11 cells assessed as accumulation of cells at sub-G1 phase at 2.5 uM incubated for 16 hrs by PI staining based flow cytometry analysis (reference value: 12.52%); type: functional
MOLM-13 = assay: Antiproliferative activity against human MOLM-13 cells harboring FLT3-ITD mutation assessed as cell growth inhibition incubated for 72 hrs by resazurin dye based fluorescence analysis; type: functional
MV4-11 [14] = assay: Induction of cell cycle arrest in CRBN-deficient human MV4-11 cells assessed as accumulation of cells at G2/M phase at 2.5 uM incubated for 16 hrs by PI staining based flow cytometry analysis (reference value: 9.34%); type: functional
MV4-11 [15] = assay: Induction of cell cycle arrest in human MV4-11 cells assessed as accumulation of cells at G1 phase at 0.02 uM incubated for 16 hrs by PI staining based flow cytometry analysis (reference value: 62.97%); type: functional
MV4-11 [16] = assay: Induction of cell cycle arrest in CRBN-deficient human MV4-11 cells assessed as accumulation of cells at G1 phase at 2.5 uM incubated for 16 hrs by PI staining based flow cytometry analysis (reference value: 54.05%); type: functional
MV4-11 [17] = assay: Antiproliferative activity against CRBN-deficient human MV4-11 cells assessed as cell growth inhibition incubated for 72 hrs by resazurin dye based fluorescence analysis; type: functional
CCRF-CEM = assay: Antiproliferative activity against human CEM cells assessed as cell growth inhibition incubated for 72 hrs by resazurin dye based fluorescence analysis; type: functional
MV4-11 [18] = assay: Induction of cell cycle arrest in CRBN-deficient human MV4-11 cells assessed as accumulation of cells at S phase at 2.5 uM incubated for 16 hrs by PI staining based flow cytometry analysis (reference value: 36.91%); type: functional
MV4-11 [19] = assay: Induction of cell cycle arrest in human MV4-11 cells assessed as accumulation of cells at G2/M phase at 0.02 uM incubated for 16 hrs by PI staining based flow cytometry analysis (reference value: 10.86%); type: functional
MV4-11 [20] = assay: Induction of cell cycle arrest in human MV4-11 cells assessed as accumulation of cells at subG1 phase at 0.5 uM incubated for 16 hrs by PI staining based flow cytometry analysis (reference value: 10.51%); type: functional
MV4-11 [21] = assay: Induction of cell cycle arrest in CRBN-deficient human MV4-11 cells assessed as accumulation of cells at G2/M phase at 0.02 uM incubated for 16 hrs by PI staining based flow cytometry analysis (reference value: 9.34%); type: functional
MV4-11 [22] = assay: Induction of cell cycle arrest in CRBN-deficient human MV4-11 cells assessed as accumulation of cells at S phase at 0.004 uM incubated for 16 hrs by PI staining based flow cytometry analysis (reference value: 36.91%); type: functional
[23] = biological target: T1, Protein cereblon/Cyclin-dependent kinase 9 (Homo sapiens); assay: PROTAC activity at CRBN/CDK9 in human MV4-11 cells at 0.1 to 0.5 uM preincubated for 90 mins with 4-hydroxythalidomide followed by compound addition and further incubated for 16 hrs by immunoblot analysis; type: cell-based; settings: dose 0.1-0.5 µM
MV4-11 [24] = assay: Induction of cell cycle arrest in CRBN-deficient human MV4-11 cells assessed as accumulation of cells at sub-G1 phase at 0.1 uM incubated for 16 hrs by PI staining based flow cytometry analysis (reference value: 12.52%); type: functional
MV4-11 [25] = assay: Induction of cell cycle arrest in CRBN-deficient human MV4-11 cells assessed as accumulation of cells at sub-G1 phase at 0.5 uM incubated for 16 hrs by PI staining based flow cytometry analysis (reference value: 12.52%); type: functional

T1 sequence (P50750 whole entry, looked up): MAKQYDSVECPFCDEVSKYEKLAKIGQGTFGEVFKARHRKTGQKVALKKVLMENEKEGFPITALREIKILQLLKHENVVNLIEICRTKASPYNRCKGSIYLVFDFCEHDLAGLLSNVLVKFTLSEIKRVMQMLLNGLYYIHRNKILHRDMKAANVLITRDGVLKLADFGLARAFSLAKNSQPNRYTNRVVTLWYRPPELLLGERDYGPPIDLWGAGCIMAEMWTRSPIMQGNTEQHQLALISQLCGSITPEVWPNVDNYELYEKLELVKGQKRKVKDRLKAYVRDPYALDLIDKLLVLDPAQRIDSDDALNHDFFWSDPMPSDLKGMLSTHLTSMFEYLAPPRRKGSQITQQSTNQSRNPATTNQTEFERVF
T1 sequence (Q96SW2 whole entry, looked up): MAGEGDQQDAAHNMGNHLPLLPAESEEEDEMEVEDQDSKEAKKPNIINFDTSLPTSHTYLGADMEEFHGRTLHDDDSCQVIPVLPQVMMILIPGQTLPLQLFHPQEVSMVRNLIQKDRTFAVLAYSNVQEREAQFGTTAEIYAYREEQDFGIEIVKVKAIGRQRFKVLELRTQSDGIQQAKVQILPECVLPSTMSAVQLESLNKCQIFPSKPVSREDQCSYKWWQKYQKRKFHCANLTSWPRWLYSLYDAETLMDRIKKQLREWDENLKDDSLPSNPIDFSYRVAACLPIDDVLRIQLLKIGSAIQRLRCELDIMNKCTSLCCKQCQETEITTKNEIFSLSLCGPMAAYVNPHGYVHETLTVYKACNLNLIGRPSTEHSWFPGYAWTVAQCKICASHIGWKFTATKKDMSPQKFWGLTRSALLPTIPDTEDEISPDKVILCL
T2 sequence (P36888 27-993 limits assumed): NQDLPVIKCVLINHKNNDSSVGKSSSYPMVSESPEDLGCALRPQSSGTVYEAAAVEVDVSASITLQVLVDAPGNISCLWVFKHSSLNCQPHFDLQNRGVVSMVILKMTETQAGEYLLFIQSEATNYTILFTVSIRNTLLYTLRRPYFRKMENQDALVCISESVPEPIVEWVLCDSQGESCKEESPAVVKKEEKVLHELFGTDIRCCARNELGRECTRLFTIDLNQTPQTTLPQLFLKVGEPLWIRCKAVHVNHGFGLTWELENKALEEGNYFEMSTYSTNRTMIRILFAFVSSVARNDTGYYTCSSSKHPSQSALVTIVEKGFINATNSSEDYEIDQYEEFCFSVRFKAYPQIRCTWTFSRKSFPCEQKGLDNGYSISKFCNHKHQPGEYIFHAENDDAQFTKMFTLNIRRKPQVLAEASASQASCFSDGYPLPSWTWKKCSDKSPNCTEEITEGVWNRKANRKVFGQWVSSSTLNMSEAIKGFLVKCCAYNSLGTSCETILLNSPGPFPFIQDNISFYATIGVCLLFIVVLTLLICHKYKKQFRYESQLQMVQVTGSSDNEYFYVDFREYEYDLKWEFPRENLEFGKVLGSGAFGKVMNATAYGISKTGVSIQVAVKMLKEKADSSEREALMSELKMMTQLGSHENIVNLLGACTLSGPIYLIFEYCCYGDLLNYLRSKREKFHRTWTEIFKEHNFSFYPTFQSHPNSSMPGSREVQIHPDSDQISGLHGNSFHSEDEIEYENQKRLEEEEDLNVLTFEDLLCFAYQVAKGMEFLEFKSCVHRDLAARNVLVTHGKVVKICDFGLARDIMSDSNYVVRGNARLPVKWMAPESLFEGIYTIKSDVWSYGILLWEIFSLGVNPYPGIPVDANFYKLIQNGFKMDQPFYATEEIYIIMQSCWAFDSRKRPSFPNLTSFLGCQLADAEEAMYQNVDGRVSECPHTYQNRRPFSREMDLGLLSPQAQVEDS
T2 sequence (Q96SW2 whole entry partner): as the sequence (Q96SW2 whole entry, looked up) above
Receptor-type tyrosine-protein kinase FLT3 (Homo sapiens), sequence (P36888 whole entry): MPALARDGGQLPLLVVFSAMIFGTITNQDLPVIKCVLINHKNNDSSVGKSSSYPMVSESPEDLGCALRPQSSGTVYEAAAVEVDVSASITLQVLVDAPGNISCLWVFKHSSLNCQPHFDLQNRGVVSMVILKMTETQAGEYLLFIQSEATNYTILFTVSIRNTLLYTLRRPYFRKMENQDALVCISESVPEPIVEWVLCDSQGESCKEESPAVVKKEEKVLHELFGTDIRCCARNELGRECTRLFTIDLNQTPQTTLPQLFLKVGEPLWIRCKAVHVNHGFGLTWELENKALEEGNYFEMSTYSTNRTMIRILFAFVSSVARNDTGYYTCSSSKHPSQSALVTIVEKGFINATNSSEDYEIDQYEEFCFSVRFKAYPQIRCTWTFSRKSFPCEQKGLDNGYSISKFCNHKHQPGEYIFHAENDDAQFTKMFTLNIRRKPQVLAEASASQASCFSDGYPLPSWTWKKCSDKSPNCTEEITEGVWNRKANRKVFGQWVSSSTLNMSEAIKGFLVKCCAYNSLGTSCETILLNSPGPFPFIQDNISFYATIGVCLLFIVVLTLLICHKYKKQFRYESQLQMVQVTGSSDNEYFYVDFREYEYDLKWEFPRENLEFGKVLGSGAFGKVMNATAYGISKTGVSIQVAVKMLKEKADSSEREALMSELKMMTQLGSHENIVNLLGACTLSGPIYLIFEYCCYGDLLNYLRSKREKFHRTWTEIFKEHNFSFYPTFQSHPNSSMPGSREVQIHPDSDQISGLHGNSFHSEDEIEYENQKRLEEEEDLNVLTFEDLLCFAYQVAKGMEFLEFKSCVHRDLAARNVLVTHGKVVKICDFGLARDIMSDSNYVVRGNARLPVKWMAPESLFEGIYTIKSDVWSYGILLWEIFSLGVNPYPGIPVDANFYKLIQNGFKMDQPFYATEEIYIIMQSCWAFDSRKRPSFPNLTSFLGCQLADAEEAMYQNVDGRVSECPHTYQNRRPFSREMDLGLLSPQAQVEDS
Receptor-type tyrosine-protein kinase FLT3 (Homo sapiens), P36888 [UNDEFINED MUTATION], sequence (P36888 whole entry, looked up, change not shown): as the sequence (P36888 whole entry) above

Which Activity (MV4-11 [1]) does the source give for `NC1CCC(Nc2nc(Nc3ccc(N4CCN(CCOCCOCCNC(=O)CNc5cccc6c5C(=O)N(C5CCC(=O)NC5=O)C6=O)CC4)cc3)c3ncn(C4CCCC4)c3n2)CC1` (stereo not given) here?
Its Activity is “Dose-Dependent Effect”.

What about the GI50 (HL-60) of the same molecule?
Its GI50 is 6120 nM.

What about the Activity [2] of the same molecule?
Its Activity is “inactive”.

What about the Activity (MV4-11 [3]) of the same molecule?
Its Activity is “Dose-Dependent Effect”.

And the GI50 (MV4-11 [4])?
Its GI50 is 47 nM.

And the Activity (MV4-11 [5])?
The Activity was “Dose-Dependent Effect”.

And the Activity (MV4-11 [6])?
The Activity was 3.96%.

And the inhibition [7]?
Its inhibition is “Active”.

And the Activity [8]?
Its Activity is “inactive”.

What about the Activity [9] of the same molecule?
The Activity was “inactive”.

And the GI50 (THP-1)?
The GI50 was 9990 nM.

What about the Activity [10] of the same molecule?
The Activity was “inactive”.

And the GI50 (RS4-11)?
Its GI50 is 1010 nM.

What about the inhibition [11] of the same molecule?
The inhibition was “Active”.

What about the Activity (MV4-11 [12]) of the same molecule?
The Activity was “inactive”.

And the Activity (MV4-11 [13])?
Its Activity is 20.31%.

And the GI50 (MOLM-13)?
The GI50 was 42 nM.

And the Activity (MV4-11 [14])?
The Activity was 4.56%.

And the Activity (MV4-11 [15])?
The Activity was 82.36%.

And the Activity (MV4-11 [16])?
The Activity was 89.4%.

And the GI50 (MV4-11 [17])?
Its GI50 is 119 nM.

What about the GI50 (CCRF-CEM) of the same molecule?
The GI50 was > 10000 nM.

What about the Activity (MV4-11 [18]) of the same molecule?
Its Activity is 6.05%.

What about the Activity (MV4-11 [19]) of the same molecule?
The Activity was 5.22%.

And the Activity (MV4-11 [20])?
The Activity was 58.62%.

What about the Activity (MV4-11 [21]) of the same molecule?
Its Activity is 6%.

What about the Activity (MV4-11 [22]) of the same molecule?
Its Activity is 28.88%.

And the Activity [23]?
The Activity was “inactive”.

What about the Activity (MV4-11 [24]) of the same molecule?
Its Activity is 17.71%.

And the Activity (MV4-11 [25])?
Its Activity is 21.07%.
